Values quoted from earlier work as cited in patent US20240401031A1, “Platform Using iPSC-Derived Cardiomyocytes Carrying Gene Variants as Models of Cardiac Disease and Drug-Response” (SRI INTERNATIONAL, priority 2021, published 2024).

Conditions: source CredibleMeds

| Compound | Risk (Torsade de Pointes) |
| --- | --- |
| O=C1[O][Pt]2([NH][C@@H]3CCCC[C@H]3[NH]2)[O]C1=O [Oxaliplatin] | (KR) |
| CN(C)CCCN1c2ccccc2Sc2cccnc21 [Prothipendyl] | (PR) |
| O=C1CN2Cc3c(ccc(Cl)c3Cl)N=C2N1 [Anagrelide] | (KR) |
| CC[C@H]1OC(=O)[C@H](C)[C@@H](O[C@H]2C[C@@](C)(OC)[C@@H](O)[C@H](C)O2)[C@H](C)[C@@H](O[C@@H]2O[C@H](C)C[C@H](N(C)C)[C@H]2O)[C@](C)(O)C[C@@H](C)/C(=N\OCOCCOC)[C@H](C)[C@@H](O)[C@]1(C)O [Roxithromycin] | (KR) |
| CC(C)(C)c1nc(-c2cccc(NS(=O)(=O)c3c(F)cccc3F)c2F)c(-c2ccnc(N)n2)s1 [Dabrafenib] | (PR) |
| N=C(N)c1ccc(OCCCCCOc2ccc(C(=N)N)cc2)cc1 [Pentamidine] | (KR) |
| Cc1c(O)cccc1C(=O)N[C@@H](CSc1ccccc1)[C@H](O)CN1C[C@H]2CCCC[C@H]2C[C@H]1C(=O)NC(C)(C)C [Nelfinavir] | (CR) |
| Cc1cccc(C)c1NC(=O)CC12CCCN1CCC2 [Pilsicainide] | (PR) |
| CN(C)CCCN1c2ccccc2CCc2ccccc21 [Imipramine] | (PR) |
| CN(C)CCC=C1c2ccccc2CCc2ccccc21 [Amitriptyline] | (CR) |
| COC(=O)C1=C(C)NC(C)=C(C(=O)OC(C)C)C1c1cccc2nonc12 (stereo not drawn) [Isradipine] | (PR) |
| CCOC(=O)C1=C(C)NC(C)=C(C(=O)OCC)C1c1ccccc1/C=C/C(=O)OC(C)(C)C [Lacidipine] | (PR) |
| CCc1cc2c(cc1CC)CC(NC[C@H](O)c1ccc(O)c3[nH]c(=O)ccc13)C2 [Indacaterol] | (SR) |
| C[C@]1(COc2ccc(N3CCC(Oc4ccc(OC(F)(F)F)cc4)CC3)cc2)Cn2cc([N+](=O)[O-])nc2O1 [Delamanid] | (PR) |
| Cc1ccc(Nc2nccc(N(C)c3ccc4c(C)n(C)nc4c3)n2)cc1S(N)(=O)=O [Pazopanib] | (PR) |
| COc1cc(Nc2c(C#N)cnc3cc(OCCCN4CCN(C)CC4)c(OC)cc23)c(Cl)cc1Cl [Bosutinib] | (PR) |
| CC[C@H](O)C(C[C@H](C)N(C)C)(c1ccccc1)c1ccccc1 [Levomethadyl] | (KR) |
| Fc1ccc([C@@H]2CCNC[C@H]2COc2ccc3c(c2)OCO3)cc1 [Paroxetine] | (CR) |
| CC(O)(CS(=O)(=O)c1ccc(F)cc1)C(=O)Nc1ccc(C#N)c(C(F)(F)F)c1 (stereo not drawn) [Bicalutamide] | (PR) |
| OCc1cc(C(O)CNCCCCCCOCCCCc2ccccc2)ccc1O (stereo not drawn) [Salmeterol] | (SR) |
| NS(=O)(=O)c1cc2c(cc1Cl)NCNS2(=O)=O [Hydrochlorothiazide] | (CR) |
| CC(C)COc1ccc(CNC(=O)N(Cc2ccc(F)cc2)C2CCN(C)CC2)cc1 [Pimavanserin] | (PR) |
| COc1ccsc1CNCC[C@@]1(c2ccccn2)CCOC2(CCCC2)C1 [Oliceridine] | (PR) |
| COc1ccc(CC(C)(C)NC[C@H](O)c2cc(O)cc3c2OCC(=O)N3)cc1 [Olodaterol] | (SR) |
| COc1ccc(OC)c(C(O)CNC(=O)CN)c1 (stereo not drawn) [Midodrine] | (SR) |
| CN1C2CCCC1CC(NC(=O)c1nn(C)c3ccccc13)C2 (stereo not drawn) [Granisetron] | (PR) |
| O=C(CCCN1CC=C(n2c(=O)[nH]c3ccccc32)CC1)c1ccc(F)cc1 [Droperidol] | (KR) |
| CNCCCN1c2ccccc2CCc2ccccc21 [Desipramine] | (PR) |
| CC(CCc1ccc(O)cc1)NCCc1ccc(O)c(O)c1 (stereo not drawn) [Dobutamine] | (SR) |
| CONC(=O)Nc1ccc(-c2sc3c(c2CN(C)C)c(=O)n(-c2ccc(OC)nn2)c(=O)n3Cc2c(F)cccc2F)cc1 [Relugolix] | (PR) |
